In ChEMBL document CHEMBL1201861, “Genomics of Drug Sensitity in Cancer screening data, Wellcome Trust Sanger Institute”:

Columns and labels:
Experiment in all cases: cells
Conditions in all cases: Homo sapiens
LXF-289 cell line = type: functional, cell-based
Description: SANGER: Inhibition of human LXF-289 cell growth in a cell viability assay.

NCI-H1155 = type: functional, cell-based;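 further: cell growth inhibition measured by a viability assay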
Description: SANGER: Inhibition of human NCI-H1155 cell growth in a cell viability assay.

NB6 = type: functional, cell-based;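 further: growth inhibition of NB6 cells, read out by a cell viability assay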
Description: SANGER: Inhibition of human NB6 cell growth in a cell viability assay.

TGBC24TKB = type: functional, cell-based;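 further: growth inhibition of human TGBC24TKB cells, read out with a cell viability assay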
Description: SANGER: Inhibition of human TGBC24TKB cell growth in a cell viability assay.

HOP-62 = type: functional, cell-based;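 further: cell growth inhibition determined with a viability assay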
Description: SANGER: Inhibition of human HOP-62 cell growth in a cell viability assay.

TK-10 = type: functional, cell-based;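 further: growth inhibition of TK-10 cells, read out in a cell viability assay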
Description: SANGER: Inhibition of human TK10 cell growth in a cell viability assay.

IA-LM = type: functional, cell-based;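 further: cell viability assay measuring growth inhibition of human IA-LM cells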
Description: SANGER: Inhibition of human IA-LM cell growth in a cell viability assay.

CCRF-CEM = type: functional, cell-based;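 further: inhibition of CCRF-CEM cell growth, measured by a cell viability assay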
Description: SANGER: Inhibition of human CCRF-CEM cell growth in a cell viability assay.

P30-OHK = type: functional, cell-based;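 further: growth inhibition of the P30-OHK cell line, read out with a cell viability assay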
Description: SANGER: Inhibition of human P30-OHK cell growth in a cell viability assay.

MSTO-211H = type: functional, cell-based
Description: SANGER: Inhibition of human MSTO-211H cell growth in a cell viability assay.

KS-1 = type: functional, cell-based;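 further: growth inhibition of KS-1 cells, read out with a cell viability assay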
Description: SANGER: Inhibition of human KS-1 cell growth in a cell viability assay.

DOHH-2 = type: functional, cell-based;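 further: growth inhibition of human DOHH-2 cells, read out with a cell viability assay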
Description: SANGER: Inhibition of human DOHH-2 cell growth in a cell viability assay.

MHH-PREB-1 = type: functional, cell-based;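 further: cell viability assay measuring inhibition of proliferation of human MHH-PREB-1 cells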
Description: SANGER: Inhibition of human MHH-PREB-1 cell growth in a cell viability assay.

KARPAS-299 = type: functional, cell-based
Description: SANGER: Inhibition of human KARPAS-299 cell growth in a cell viability assay.

D-502MG = type: functional, cell-based
Description: SANGER: Inhibition of human D-502MG cell growth in a cell viability assay.

ES5 = type: functional, cell-based;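 further: growth inhibition of human ES5 cells, read out by a cell viability assay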
Description: SANGER: Inhibition of human ES5 cell growth in a cell viability assay.

RPMI-8866 = type: functional, cell-based
Description: SANGER: Inhibition of human RPMI-8866 cell growth in a cell viability assay.

C8166 = type: functional, cell-based;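 further: growth inhibition of human C8166 cells measured by a cell viability assay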
Description: SANGER: Inhibition of human C8166 cell growth in a cell viability assay.

TE-8 = type: functional, cell-based;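 further: growth inhibition of TE-8 cells, measured with a cell viability readout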
Description: SANGER: Inhibition of human TE-8 cell growth in a cell viability assay.

NCI-H69 = type: functional, cell-based;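 further: growth inhibition of the cell line, read out with a cell viability assay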
Description: SANGER: Inhibition of human NCI-H69 cell growth in a cell viability assay.

SF-126 = type: functional, cell-based;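 further: growth inhibition of human SF126 cells, read out with a cell viability assay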
Description: SANGER: Inhibition of human SF126 cell growth in a cell viability assay.

KY821 = type: functional, cell-based;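 further: growth inhibition of human KY821 cells, read out by a cell viability assay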
Description: SANGER: Inhibition of human KY821 cell growth in a cell viability assay.

HuTu80 = type: functional, cell-based, HUTU-80;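 further: growth inhibition of HuTu80 human cells, determined with a cell viability readout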
Description: SANGER: Inhibition of human HUTU-80 cell growth in a cell viability assay.

8-MG-BA = type: functional, cell-based;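 further: growth inhibition of 8-MG-BA cells, read out with a cell viability assay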
Description: SANGER: Inhibition of human 8-MG-BA cell growth in a cell viability assay.

LNCaP-Clone-FGC = type: functional, cell-based
Description: SANGER: Inhibition of human LNCaP-Clone-FGC cell growth in a cell viability assay.

GCIY = type: functional, cell-based;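 further: growth inhibition of the human GCIY cell line, read out by a cell viability assay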
Description: SANGER: Inhibition of human GCIY cell growth in a cell viability assay.

QIMR-WIL = type: functional, cell-based;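 further: growth inhibition of QIMR-WIL cells, read out with a cell viability assay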
Description: SANGER: Inhibition of human QIMR-WIL cell growth in a cell viability assay.

Mo = type: functional, cell-based
Description: SANGER: Inhibition of human Mo-T cell growth in a cell viability assay.

Ramos-2G6-4C10 = type: functional, cell-based;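 further: growth inhibition of the cell line, measured by a cell viability read-out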
Description: SANGER: Inhibition of human Ramos-2G6-4C10 cell growth in a cell viability assay.

MLMA = type: functional, cell-based;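 further: growth inhibition of MLMA cells (human), determined through a cell viability readout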
Description: SANGER: Inhibition of human MLMA cell growth in a cell viability assay.

SK-NEP-1 = type: functional, cell-based;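 further: growth inhibition of human SK-NEP-1 cells, read out by a cell viability assay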
Description: SANGER: Inhibition of human SK-NEP-1 cell growth in a cell viability assay.

KARPAS-45 = type: functional, cell-based;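 further: inhibition of cell line growth, read out through a viability assay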
Description: SANGER: Inhibition of human KARPAS-45 cell growth in a cell viability assay.

NOMO-1 = type: functional, cell-based;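 further: growth inhibition of human NOMO-1 cells measured by a cell viability assay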
Description: SANGER: Inhibition of human NOMO-1 cell growth in a cell viability assay.

SK-LMS-1 = type: functional, cell-based;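 further: growth inhibition of human SK-LMS-1 cells, read out with a cell viability assay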
Description: SANGER: Inhibition of human SK-LMS-1 cell growth in a cell viability assay.

LS-513 = type: functional, cell-based
Description: SANGER: Inhibition of human LS-513 cell growth in a cell viability assay.

KLE = type: functional, cell-based;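 further: growth inhibition of human KLE cells, read out with a cell viability assay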
Description: SANGER: Inhibition of human KLE cell growth in a cell viability assay.

LU-134-A = type: functional, cell-based
Description: SANGER: Inhibition of human LU-134-A cell growth in a cell viability assay.

EKVX = type: functional, cell-based;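 further: growth inhibition of human EKVX cells, read out with a cell viability assay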
Description: SANGER: Inhibition of human EKVX cell growth in a cell viability assay.

Lu-65 = type: functional, cell-based;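 further: growth inhibition of Lu-65 cancer cells, read out by a cell viability assay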
Description: SANGER: Inhibition of human LU-65 cell growth in a cell viability assay.

KINGS-1 = type: functional, cell-based;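 further: cell viability assay measuring suppression of KINGS-1 cell growth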
Description: SANGER: Inhibition of human KINGS-1 cell growth in a cell viability assay.

HC-1 = type: functional, cell-based;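 further: growth inhibition of HC-1 cells measured by a cell viability assay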
Description: SANGER: Inhibition of human HC-1 cell growth in a cell viability assay.

CW-2 = type: functional, cell-based;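 further: growth inhibition of CW-2 cells, read out by a cell viability assay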
Description: SANGER: Inhibition of human CW-2 cell growth in a cell viability assay.

HCC2218 = type: functional, cell-based;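 further: cell viability assay read-out, with IC50 given as the concentration that inhibits growth of the cell line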
Description: SANGER: Inhibition of human HCC2218 cell growth in a cell viability assay.

NCI-H747 = type: functional, cell-based;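 further: growth inhibition of human NCI-H747 cells, read out by a cell viability assay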
Description: SANGER: Inhibition of human NCI-H747 cell growth in a cell viability assay.

EW-1 = type: functional, cell-based;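 further: growth inhibition of the human EW-1 cell line, read out by a cell viability assay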
Description: SANGER: Inhibition of human EW-1 cell growth in a cell viability assay.

HH = type: functional, cell-based
Description: SANGER: Inhibition of human HH cell growth in a cell viability assay.

A704 = type: functional, cell-based;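 further: growth inhibition of human A704 cells, read out with a cell viability assay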
Description: SANGER: Inhibition of human A704 cell growth in a cell viability assay.

OMC-1 = type: functional, cell-based;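 further: growth inhibition of the OMC-1 cell line, measured by a cell viability assay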
Description: SANGER: Inhibition of human OMC-1 cell growth in a cell viability assay.

SW982 = type: functional, cell-based;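 further: growth inhibition of SW982 cells, read out with a cell viability assay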
Description: SANGER: Inhibition of human SW982 cell growth in a cell viability assay.

ONS-76 = type: functional, cell-based;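 further: growth inhibition of human ONS-76 cells, read out with a cell viability assay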
Description: SANGER: Inhibition of human ONS-76 cell growth in a cell viability assay.

SNU-C2B = type: functional, cell-based;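 further: cell viability readout used to measure compound-driven suppression of SNU-C2B cell proliferation, IC50 marking half-maximal growth inhibition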
Description: SANGER: Inhibition of human SNU-C2B cell growth in a cell viability assay.

BB30-HNC = type: functional, cell-based;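 further: growth inhibition of the cultured cell line, read out by a cell viability assay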
Description: SANGER: Inhibition of human BB30-HNC cell growth in a cell viability assay.

NEC8 = type: functional, cell-based;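 further: growth inhibition of human NEC8 cells, read out by a cell viability assay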
Description: SANGER: Inhibition of human NEC8 cell growth in a cell viability assay.

COLO-668 = type: functional, cell-based
Description: SANGER: Inhibition of human COLO-668 cell growth in a cell viability assay.

MHH-NB-11 = type: functional, cell-based;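 further: growth inhibition of human MHH-NB-11 cells, read out by a cell viability assay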
Description: SANGER: Inhibition of human MHH-NB-11 cell growth in a cell viability assay.

KURAMOCHI = type: functional, cell-based;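 further: growth inhibition of KURAMOCHI cells, read out with a cell viability assay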
Description: SANGER: Inhibition of human KURAMOCHI cell growth in a cell viability assay.

KMOE-2 = type: functional, cell-based;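 further: growth inhibition of human KMOE-2 cells, read out with a cell viability assay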
Description: SANGER: Inhibition of human KMOE-2 cell growth in a cell viability assay.

SNU1 = type: functional, cell-based;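 further: growth inhibition of human NCI-SNU-1 cells, measured with a cell viability assay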
Description: SANGER: Inhibition of human NCI-SNU-1 cell growth in a cell viability assay.

LS-1034 = type: functional, cell-based
Description: SANGER: Inhibition of human LS-1034 cell growth in a cell viability assay.

U-87 MG = type: functional, cell-based, U-87MG ATCC
Description: SANGER: Inhibition of human U-87-MG cell growth in a cell viability assay.

HCE-T = type: functional, cell-based
Description: SANGER: Inhibition of human HCE-T cell growth in a cell viability assay.

SW 962 = type: functional, cell-based
Description: SANGER: Inhibition of human SW962 cell growth in a cell viability assay.

NOS-1 = type: functional, cell-based
Description: SANGER: Inhibition of human NOS-1 cell growth in a cell viability assay.

LAN-6 = type: functional, cell-based
Description: SANGER: Inhibition of human LAN-6 cell growth in a cell viability assay.

DJM-1 = type: functional, cell-based
Description: SANGER: Inhibition of human DJM-1 cell growth in a cell viability assay.

C[C@]12O[C@H](C[C@]1(O)CO)n1c3ccccc3c3c4c(c5c6ccccc6n2c5c31)CNC4=O [LESTAURTINIB]
IC50 (LXF-289 cell line): 1020 nM
IC50 (NCI-H1155): 912 nM
IC50 (NB6): 936 nM
IC50 (TGBC24TKB): > 2000 nM
IC50 (HOP-62): > 2000 nM
IC50 (TK-10): 251 nM
IC50 (IA-LM): > 2000 nM
IC50 (CCRF-CEM): > 2000 nM
IC50 (P30-OHK): 128 nM
IC50 (MSTO-211H): 439 nM
IC50 (KS-1): 375 nM
IC50 (DOHH-2): 184 nM
IC50 (MHH-PREB-1): 27.2 nM
IC50 (KARPAS-299): > 2000 nM
IC50 (D-502MG): 411 nM
IC50 (ES5): 16.5 nM
IC50 (RPMI-8866): 123 nM
IC50 (C8166): > 2000 nM
IC50 (TE-8): 667 nM
IC50 (NCI-H69): > 2000 nM
IC50 (SF-126): 273 nM
IC50 (KY821): 159 nM
IC50 (HuTu80): 649 nM
IC50 (8-MG-BA): 124 nM
IC50 (LNCaP-Clone-FGC): 353 nM
IC50 (GCIY): > 2000 nM
IC50 (QIMR-WIL): 94.1 nM
IC50 (Mo): > 2000 nM
IC50 (Ramos-2G6-4C10): 206 nM
IC50 (MLMA): 146 nM
IC50 (SK-NEP-1): 112 nM
IC50 (KARPAS-45): 52.4 nM
IC50 (NOMO-1): 149 nM
IC50 (SK-LMS-1): > 2000 nM
IC50 (LS-513): 1250 nM
IC50 (KLE): > 2000 nM
IC50 (LU-134-A): 600 nM
IC50 (EKVX): 606 nM
IC50 (Lu-65): > 2000 nM
IC50 (KINGS-1): 547 nM
IC50 (HC-1): 922 nM
IC50 (CW-2): > 2000 nM
IC50 (HCC2218): > 2000 nM
IC50 (NCI-H747): 1050 nM
IC50 (EW-1): 1080 nM
IC50 (HH): 506 nM
IC50 (A704): 967 nM
IC50 (OMC-1): 1180 nM
IC50 (SW982): 42.5 nM
IC50 (ONS-76): 136 nM
IC50 (SNU-C2B): 1120 nM
IC50 (BB30-HNC): 935 nM
IC50 (NEC8): 268 nM
IC50 (COLO-668): > 2000 nM
IC50 (MHH-NB-11): 1110 nM
IC50 (KURAMOCHI): > 2000 nM
IC50 (KMOE-2): 617 nM
IC50 (SNU1): 183 nM
IC50 (LS-1034): > 2000 nM
IC50 (U-87 MG): > 2000 nM
IC50 (HCE-T): 179 nM
IC50 (SW 962): 154 nM
IC50 (NOS-1): 949 nM
IC50 (LAN-6): > 2000 nM
IC50 (DJM-1): 659 nM
